From patent US20240173327A1, “NEW TREATMENT” (Verona Pharma PLC, priority 2022, published 2024)

System: patients aged 40-80 years with moderate to severe COPD
Assay: Multi-centre, randomized, double-blind, placebo-controlled clinical study of nebulised ensifentrine in COPD (FEV1 spirometry)
Format: in vivo
Conditions: for Average change in baseline FEV1 (AUC)0-12 h at Week 12: 3 mg BID by nebuliser
Protocol: A clinical study was conducted to determine the efficacy of ensifentrine in treating COPD compared with placebo. Ensifentrine was administered by nebuliser at a dose of 3 mg twice daily (BID) for 24 weeks. The study was a multi-centre, randomized, double-blind, parallel-group, placebo-controlled trial with around 800 patients and 5:3 randomization.
The study population included patients aged 40-80 years with moderate to severe COPD (FEV1 30%-70% p.n., FEV1/forced vital capacity (FVC) ratio <0.7, with mMRC≥2). The randomization stratified (a) the use of stable background maintenance LAMA or LABA therapy use (approx. 50%. yes or no) and (b) cigarette smoking (current or former). Inhaled corticosteroid (ICS) maintenance therapy was permitted in up to 20% of patients under certain provisions.
The primary endpoint of the study was change from baseline in average FEV1 area under the curve (AUC)0-12 h post-dose at week 12. Secondary endpoints of the study included: peak FEV1 over 4 hours post-dose at Week 12; morning trough FEV1 at Week 12; and other endpoints including moderate/severe COPD exacerbations frequency over 24 Weeks.
COPD severity is derived as follows: mild: 80%<=FEV1, moderate: 50%<=FEV1<80% predicted, severe: 30%<=FEV1<50% predicted and very severe: FEV1<30% predicted, post bronchodilator dose at Screening.
Baseline FEV1 is the mean of the two measurements taken before study medication on the day of first dosing, i.e. ≤40 minutes and just prior to dosing, both pre-dose on day 1.
Average FEV1 AUC0-12 h is defined as area under the curve over 12 hours of the FEV1, divided by 12 hours.
The investigational product and placebo were provided in 2.5 mL unit dose format in an ampule and administered via a nebuliser.

Structure (SMILES): COc1cc2c(cc1OC)-c1c/c(=N\c3c(C)cc(C)cc3C)n(CCNC(N)=O)c(=O)n1CC2 [Ensifentrine, N-(2-{(2E)-9,10-dimethoxy-4-oxo-2-[(2,4,6-trimethylphenyl)imino]-6,7-dihydro-2H-pyrimido[6,1-a]isoquinolin-3(4H)-yl}ethyl)urea]
- Improvement in lung function (all subgroups of COPD patients in the study): statistically significant
- Improving lung function in moderate COPD (moderate COPD patients): particularly effective
- Average change in baseline FEV1 (AUC)0-12 h at Week 12 (patients with moderate COPD): 139 mL
- Average change in baseline FEV1 (AUC)0-12 h at Week 12 (patients with severe COPD): 45 mL
